Measured values taken from patent US20240101576A1, “HETEROCYCLIC INHIBITORS OF EGFR AND/OR HER2, FOR USE IN THE TREATMENT OF CANCER” (Scorpion Therapeutics, Inc., priority 2020, published 2024).

Columns and labels:
Format in all cases: cell-based
[1] = target: T1, EGFR exon 19del (Ba/F3 cells) (Homo sapiens, UniProt P00533); assay: Inhibitor activity on EGFR phosphorylation (pEGFR AlphaLISA, 2 h), Ba/F3 EGFR exon 19del; details: read-out: Del19 IC50 (pEGFR)
Source text: (§1) Example B. Inhibitor Activity on EGFR phosphorylation (pEGFR)
(§2) EGFR mutant Ba/F3 cells were generated by transduction with retrovirus containing vectors expressing EGFR L858R, EGFR exon 19del, EGFR L858R/C797S, EGFR exon 20 NPG Ins D770_N771, EGFR exon 20 ASV Ins V769_D770, or EGFR exon 20 SVD Ins D770_N771 genes along with a puromycin selection marker. Transduced cells are selected with puromycin for 7 days and are then be transferred into culture media without Interleukin 3 (IL3). Surviving cells are confirmed to express EGFR by Western blot and maintained as a pool. CUTO14 cells were obtained from Dr. Robert C. Doebele at the University of Colorado. The IC50 date are included in Table 6 and Table 7.
(§3) 1.1 Cells are harvested from flask into cell culture medium and the cell number counted.
(§4) 1.2 Cells are diluted with culture medium to the desired density and 40 μL of cell suspension is added into each well of 384-well cell culture plate and the seeding density is 50K cells/well (Ba/F3) or 12.5K cells/well (CUTO14).
(§5) 2 Compound Preparation and Treatment
(§6) 2.1 Test compounds are dissolved to 10 mM in a DMSO stock solution. 45 μL of stock solution is transferred to a 384 polypropylene plate (pp-plate). Perform 3-fold, 10-point dilution via transferring 15 μL compound into 30 μL DMSO using a TECAN (EVO200) liquid handler.
(§7) 2.2 Spin plates at room temperature at 1,000 RPM for 1 minute.
(§8) 2.3 Transfer 5 nL of diluted compound from compound source plate into the cell plate.
(§9) 2.4 After compound treatment for 2 hours, perform pEGFR detection by AlphaLISA for compound treatment plates as described in “Detection” section.
(§10) 3 Detection by pEGFR AlphaLISA (Perkin-Elmer)
(§11) 3.1 Plates are removed from incubators and equilibrated at room temperature for 10 minutes, and media was removed
(§12) 3.2 10 μL of lysis buffer is added and plates shaken at 600 rpm for 1 hr.
(§13) 3.3 Prepare acceptor mix just before use and dispense 5 μL of acceptor mix to all the wells. Shake 350 rpm for Ihr in the dark
(§14) 3.4 Prepare donor mix under low light conditions prior to use. Dispense 5 μL of donor mix to all the wells. Mix well on the shaker, seal and wrap in aluminum foil and incubate 1.5 hrs at room temperature in the dark
(§15) 3.5 Transfer 18.5 μL mixture to OptiPlate 384, and read using an Envision. The IC50 date were included in Table 6 and Table 7.

[2] = target: T2, EGFR exon 20 ASV Ins V769_D770 (Ba/F3 cells) (Homo sapiens, UniProt P00533, INS769ASV); assay: Inhibitor activity on EGFR-dependent cell growth (CellTiter-Glo, 72 h), Ba/F3 EGFR exon 20 ASV Ins; details: read-out: BaF3 ASV IC50
T2 construct: expressed in transfected cells; host or cells: Ba/F3 (murine pro-B cells), retroviral transduction, puromycin selection, IL3-independent pool
In short: (§16)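 IC50s derive from a sigmoidal dose–response fit of CellTiter-Glo signal. The signal was normalised between […]-treated cells and cell-free medium. Ba/F3 mutant-EGFR cells, seeded at 400–800/well depending on the line, had 72 h of exposure to a 10-point, 3-fold compound series.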

[3] = target: T3, EGFR L858R/C797S (Ba/F3 cells) (Homo sapiens, UniProt P00533, C797S/L858R); assay: Inhibitor activity on EGFR phosphorylation (pEGFR AlphaLISA, 2 h), Ba/F3 EGFR L858R/C797S
T3 construct: expressed in transfected cells; host or cells: Ba/F3 (murine pro-B cells), retroviral transduction, puromycin selection, IL3-independent pool
Source text: as §1, §2, §3, §4, §5, §6, §7, §8, §9, §10, §11, §12, §13, §14, §15

EGFR WT (Ba/F3 cells) = target: T4, EGFR WT (Ba/F3 cells) (Homo sapiens, UniProt P00533); assay: Inhibitor activity on EGFR-dependent cell growth (CellTiter-Glo, 72 h), Ba/F3 EGFR WT; details: read-out: BaF3 WT IC50
T4 construct: expressed in transfected cells; host or cells: Ba/F3 (murine pro-B cells), retroviral transduction, puromycin selection, maintained with EGF
In short: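 This growth assay used Ba/F3 cells that depend on wild-type EGFR and are kept in EGF without IL3. Compounds were made up as 10 mM DMSO stocks and diluted 3-fold over 10 points. 120 nL went onto 600 cells/well. After 72 hours, 40 μL CellTiter-Glo was added and luminescence read on EnVision after 30 min.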

EGFR L858R (Ba/F3 cells) [4] = target: T5, EGFR L858R (Ba/F3 cells) (Homo sapiens, UniProt P00533, L858R); assay: Inhibitor activity on EGFR phosphorylation (pEGFR AlphaLISA, 2 h), Ba/F3 EGFR L858R
T5 construct: expressed in transfected cells; host or cells: Ba/F3 (murine pro-B cells), retroviral transduction, puromycin selection, IL3-independent pool
Source text: as §1, §2, §3, §4, §5, §6, §7, §8, §9, §10, §11, §12, §13, §14, §15

[5] = target: T6, EGFR exon 20 FQEA Ins A763_V764 (Ba/F3 cells) (Homo sapiens, UniProt P00533, INS763FQEA); assay: Inhibitor activity on EGFR-dependent cell growth (CellTiter-Glo, 72 h), Ba/F3 EGFR exon 20 FQEA Ins; details: read-out: BaF3 FQEA IC50
T6 construct: expressed in transfected cells; host or cells: Ba/F3 (murine pro-B cells), retroviral transduction, puromycin selection, IL3-independent pool
In short: (§17)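 For each mutant line, growth depends on EGFR signalling in the absence of IL3. Density per well: 400 for L858R, 600 for the C797S double mutant, 800 for exon 19del and FQEA. Ten threefold dilutions were applied for 72 h. %Inhibition = 100×(DMSO − sample)/(DMSO − medium blank).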

EGFR L858R (Ba/F3 cells) [6] = target: T5, EGFR L858R (Ba/F3 cells); assay: Inhibitor activity on EGFR-dependent cell growth (CellTiter-Glo, 72 h), Ba/F3 EGFR L858R; details: read-out: BaF3 L858R IC50
In short: as §17

[7] = target: T7, EGFR exon 20 SVD Ins D770_N771 (Ba/F3 cells) (Homo sapiens, UniProt P00533, INS770SVD); assay: Inhibitor activity on EGFR-dependent cell growth (CellTiter-Glo, 72 h), Ba/F3 EGFR exon 20 SVD Ins; details: read-out: BaF3 SVD IC50
T7 construct: expressed in transfected cells; host or cells: Ba/F3 (murine pro-B cells), retroviral transduction, puromycin selection, IL3-independent pool
In short: as §16

[8] = target: T3, EGFR L858R/C797S (Ba/F3 cells); assay: Inhibitor activity on EGFR-dependent cell growth (CellTiter-Glo, 72 h), Ba/F3 EGFR L858R/C797S; details: read-out: BaF3 L858R/C797S IC50
Source text: Example A. Inhibitor Activity on EGFR-Dependent Cell Growth
Cell lines are generated by transducing Ba/F3 cells with retroviruses containing vectors with EGFR WT, EGFR L858R, EGFR exon 19del, EGFR L858R/C797S, EGFR exon 20 NPG Ins D770_N771, EGFR exon 20 ASV Ins V769_D770, EGFR exon 20 SVD Ins D770_N771, or EGFR exon 20 FQEA Ins A763_V764 genes and a puromycin selection marker. Transduced cells are selected with puromycin for 7 days and are then be transferred into culture media without Interleukin 3 (IL3). EGFR WT cells are maintained with supplemental EGF. Surviving cells are confirmed to express EGFR by Western blot and maintained as a pool. The IC50 date were included in Table 6 and Table 7.
as §3
1.2 Cells are diluted with culture medium to the desired density and 40 μL of cell suspension is added into each well of 384-well cell culture plate and the seeding density is 800 (FQEA, exon 19del), 600 (WT, NPG, L858R/C797S), or 400 (ASV, SVD, L858R) cells/well.
as §5, §6, §7
2.3 Transfer 120 nL of diluted compound from compound source plate into the cell plate.
2.4 After compound treatment for 72 hours, perform CTG detection for compound treatment plates as described in “Detection” section.
3.1 Plates are removed from incubators and equilibrated at room temperature for 15 minutes.
3.2 Thaw the CellTiter Glo reagents and allow to equilibrate to room temperature before the experiment.
3.3 Add 40 μL of CellTiter-Glo reagent into each well (at 1:1 to culture medium). Then place the plates at room temperature for 30 min followed by reading on EnVision.
4.1 Inhibition activity is calculated following the formula below:
% Inhibition=100×(LumHC−LumSample)/(LumHC−LumLC) • where HC is obtained from cells treated with 0.1% DMSO only; and LC is obtained from culture medium only.
4.2 2. Calculate the IC50 by fitting the Curve using Xlfit (v5.3.1.3), equation 201.
Y=Bottom+(Top−Bottom)/(1+10^((Log IC50−X)*HillSlope))

[9] = target: T1, EGFR exon 19del (Ba/F3 cells); assay: Inhibitor activity on EGFR-dependent cell growth (CellTiter-Glo, 72 h), Ba/F3 EGFR exon 19del; details: Ba/F3 EGFR exon 19del cell growth, read-out: BaF3 Del19 IC50
In short: as §17

[10] = target: T8, EGFR exon 20 NPG Ins D770_N771 (Ba/F3 cells) (Homo sapiens, UniProt P00533, INS770NPG); assay: Inhibitor activity on EGFR-dependent cell growth (CellTiter-Glo, 72 h), Ba/F3 EGFR exon 20 NPG Ins; details: read-out: BaF3 NPG IC50
T8 construct: expressed in transfected cells; host or cells: Ba/F3 (murine pro-B cells), retroviral transduction, puromycin selection, IL3-independent pool
In short: as §16

EGFR (CUTO14 cells) = EGFR (CUTO14 cells) (Homo sapiens, UniProt P00533); assay: Inhibitor activity on EGFR phosphorylation (pEGFR AlphaLISA, 2 h), CUTO14 cells
Source text: as §1, §2, §3, §4, §5, §6, §7, §8, §9, §10, §11, §12, §13, §14, §15

T7 sequence (P00533 with tags, fused parts or gaps INS770SVD): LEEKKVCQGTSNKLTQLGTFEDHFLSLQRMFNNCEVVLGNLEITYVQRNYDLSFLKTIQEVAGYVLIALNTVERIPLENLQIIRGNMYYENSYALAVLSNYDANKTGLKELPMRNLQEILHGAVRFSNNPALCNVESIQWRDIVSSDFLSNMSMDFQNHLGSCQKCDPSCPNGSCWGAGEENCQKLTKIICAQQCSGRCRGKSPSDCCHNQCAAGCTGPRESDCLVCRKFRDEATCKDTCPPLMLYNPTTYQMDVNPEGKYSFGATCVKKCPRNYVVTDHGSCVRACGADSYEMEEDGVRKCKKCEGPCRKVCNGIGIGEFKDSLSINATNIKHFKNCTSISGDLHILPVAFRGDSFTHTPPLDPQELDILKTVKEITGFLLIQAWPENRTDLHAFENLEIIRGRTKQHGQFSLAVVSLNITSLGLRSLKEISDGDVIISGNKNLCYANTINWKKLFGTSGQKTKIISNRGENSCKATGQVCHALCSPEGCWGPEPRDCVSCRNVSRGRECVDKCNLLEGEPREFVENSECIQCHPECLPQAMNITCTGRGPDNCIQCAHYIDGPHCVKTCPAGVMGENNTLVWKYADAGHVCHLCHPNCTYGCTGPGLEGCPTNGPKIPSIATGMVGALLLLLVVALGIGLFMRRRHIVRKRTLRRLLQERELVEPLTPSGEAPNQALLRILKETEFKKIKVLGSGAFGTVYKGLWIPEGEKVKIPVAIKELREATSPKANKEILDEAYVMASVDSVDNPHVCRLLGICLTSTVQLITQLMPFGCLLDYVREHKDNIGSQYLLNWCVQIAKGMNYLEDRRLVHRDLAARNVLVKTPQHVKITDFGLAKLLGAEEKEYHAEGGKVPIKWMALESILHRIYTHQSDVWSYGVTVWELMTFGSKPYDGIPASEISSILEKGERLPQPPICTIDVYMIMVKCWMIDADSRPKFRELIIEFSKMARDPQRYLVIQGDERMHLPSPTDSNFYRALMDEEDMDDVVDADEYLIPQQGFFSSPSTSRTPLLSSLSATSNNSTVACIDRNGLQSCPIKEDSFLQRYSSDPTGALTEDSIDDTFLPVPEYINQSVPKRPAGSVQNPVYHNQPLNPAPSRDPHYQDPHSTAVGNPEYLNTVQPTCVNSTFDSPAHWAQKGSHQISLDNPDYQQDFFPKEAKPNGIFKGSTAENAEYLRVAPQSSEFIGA
T5 sequence (P00533 25-1210 L858R): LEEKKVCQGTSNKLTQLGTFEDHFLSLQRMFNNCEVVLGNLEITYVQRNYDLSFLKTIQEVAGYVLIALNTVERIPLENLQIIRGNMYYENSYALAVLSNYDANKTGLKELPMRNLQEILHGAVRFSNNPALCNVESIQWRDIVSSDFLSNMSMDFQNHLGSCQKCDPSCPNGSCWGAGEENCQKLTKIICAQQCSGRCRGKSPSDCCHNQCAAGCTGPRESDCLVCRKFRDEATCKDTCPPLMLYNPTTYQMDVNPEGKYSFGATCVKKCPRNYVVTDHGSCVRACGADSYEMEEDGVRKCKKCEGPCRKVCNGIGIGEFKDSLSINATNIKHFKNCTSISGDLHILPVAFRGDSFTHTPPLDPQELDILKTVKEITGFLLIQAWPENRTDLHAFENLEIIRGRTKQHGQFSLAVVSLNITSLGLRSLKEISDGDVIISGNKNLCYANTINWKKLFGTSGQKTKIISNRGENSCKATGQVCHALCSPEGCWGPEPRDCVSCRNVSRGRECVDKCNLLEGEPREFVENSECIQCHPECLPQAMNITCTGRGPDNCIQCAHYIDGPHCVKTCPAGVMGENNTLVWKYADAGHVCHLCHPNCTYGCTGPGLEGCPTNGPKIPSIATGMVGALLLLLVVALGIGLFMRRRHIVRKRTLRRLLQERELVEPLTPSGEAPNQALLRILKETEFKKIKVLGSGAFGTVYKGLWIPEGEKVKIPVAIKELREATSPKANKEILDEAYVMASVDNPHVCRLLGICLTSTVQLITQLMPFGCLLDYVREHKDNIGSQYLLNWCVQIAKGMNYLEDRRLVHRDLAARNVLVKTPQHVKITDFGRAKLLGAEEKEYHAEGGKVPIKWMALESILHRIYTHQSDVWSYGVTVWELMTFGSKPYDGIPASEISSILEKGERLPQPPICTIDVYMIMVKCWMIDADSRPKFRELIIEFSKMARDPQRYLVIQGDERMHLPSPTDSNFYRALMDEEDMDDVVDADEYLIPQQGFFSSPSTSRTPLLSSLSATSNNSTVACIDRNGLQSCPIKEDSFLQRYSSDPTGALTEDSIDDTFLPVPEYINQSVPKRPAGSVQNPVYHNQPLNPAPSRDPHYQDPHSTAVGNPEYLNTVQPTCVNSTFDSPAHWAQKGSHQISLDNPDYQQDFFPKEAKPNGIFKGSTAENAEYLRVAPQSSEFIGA
T2 sequence (P00533 with tags, fused parts or gaps INS769ASV): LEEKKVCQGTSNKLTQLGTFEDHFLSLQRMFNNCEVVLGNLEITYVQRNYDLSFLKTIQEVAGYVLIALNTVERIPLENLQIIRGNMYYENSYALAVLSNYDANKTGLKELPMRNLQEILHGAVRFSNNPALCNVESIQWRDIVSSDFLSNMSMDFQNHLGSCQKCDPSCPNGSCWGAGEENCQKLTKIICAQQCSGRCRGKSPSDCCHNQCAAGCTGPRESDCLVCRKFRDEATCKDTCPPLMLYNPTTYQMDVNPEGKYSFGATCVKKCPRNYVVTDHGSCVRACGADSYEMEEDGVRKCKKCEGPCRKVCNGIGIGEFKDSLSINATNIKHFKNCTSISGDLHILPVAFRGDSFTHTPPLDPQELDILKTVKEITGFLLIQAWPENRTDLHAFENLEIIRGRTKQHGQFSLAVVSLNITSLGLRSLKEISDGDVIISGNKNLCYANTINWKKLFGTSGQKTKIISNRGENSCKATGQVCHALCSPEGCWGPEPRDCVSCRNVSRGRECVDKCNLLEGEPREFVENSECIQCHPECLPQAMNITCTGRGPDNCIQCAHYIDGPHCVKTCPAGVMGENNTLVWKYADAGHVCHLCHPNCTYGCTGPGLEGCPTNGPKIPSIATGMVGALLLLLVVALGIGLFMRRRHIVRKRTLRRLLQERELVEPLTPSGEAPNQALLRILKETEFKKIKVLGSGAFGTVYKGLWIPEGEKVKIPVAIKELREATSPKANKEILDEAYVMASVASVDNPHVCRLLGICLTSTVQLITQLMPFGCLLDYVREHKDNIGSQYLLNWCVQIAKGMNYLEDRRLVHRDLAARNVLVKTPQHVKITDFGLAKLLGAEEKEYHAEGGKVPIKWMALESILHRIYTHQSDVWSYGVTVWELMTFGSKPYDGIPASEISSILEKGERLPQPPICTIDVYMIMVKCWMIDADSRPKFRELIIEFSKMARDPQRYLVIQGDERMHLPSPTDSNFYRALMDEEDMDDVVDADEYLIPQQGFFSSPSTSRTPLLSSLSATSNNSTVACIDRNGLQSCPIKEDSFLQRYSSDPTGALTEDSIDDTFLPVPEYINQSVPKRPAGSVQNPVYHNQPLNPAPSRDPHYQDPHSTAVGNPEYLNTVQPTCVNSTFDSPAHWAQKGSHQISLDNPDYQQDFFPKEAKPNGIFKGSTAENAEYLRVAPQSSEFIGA
T8 sequence (P00533 with tags, fused parts or gaps INS770NPG): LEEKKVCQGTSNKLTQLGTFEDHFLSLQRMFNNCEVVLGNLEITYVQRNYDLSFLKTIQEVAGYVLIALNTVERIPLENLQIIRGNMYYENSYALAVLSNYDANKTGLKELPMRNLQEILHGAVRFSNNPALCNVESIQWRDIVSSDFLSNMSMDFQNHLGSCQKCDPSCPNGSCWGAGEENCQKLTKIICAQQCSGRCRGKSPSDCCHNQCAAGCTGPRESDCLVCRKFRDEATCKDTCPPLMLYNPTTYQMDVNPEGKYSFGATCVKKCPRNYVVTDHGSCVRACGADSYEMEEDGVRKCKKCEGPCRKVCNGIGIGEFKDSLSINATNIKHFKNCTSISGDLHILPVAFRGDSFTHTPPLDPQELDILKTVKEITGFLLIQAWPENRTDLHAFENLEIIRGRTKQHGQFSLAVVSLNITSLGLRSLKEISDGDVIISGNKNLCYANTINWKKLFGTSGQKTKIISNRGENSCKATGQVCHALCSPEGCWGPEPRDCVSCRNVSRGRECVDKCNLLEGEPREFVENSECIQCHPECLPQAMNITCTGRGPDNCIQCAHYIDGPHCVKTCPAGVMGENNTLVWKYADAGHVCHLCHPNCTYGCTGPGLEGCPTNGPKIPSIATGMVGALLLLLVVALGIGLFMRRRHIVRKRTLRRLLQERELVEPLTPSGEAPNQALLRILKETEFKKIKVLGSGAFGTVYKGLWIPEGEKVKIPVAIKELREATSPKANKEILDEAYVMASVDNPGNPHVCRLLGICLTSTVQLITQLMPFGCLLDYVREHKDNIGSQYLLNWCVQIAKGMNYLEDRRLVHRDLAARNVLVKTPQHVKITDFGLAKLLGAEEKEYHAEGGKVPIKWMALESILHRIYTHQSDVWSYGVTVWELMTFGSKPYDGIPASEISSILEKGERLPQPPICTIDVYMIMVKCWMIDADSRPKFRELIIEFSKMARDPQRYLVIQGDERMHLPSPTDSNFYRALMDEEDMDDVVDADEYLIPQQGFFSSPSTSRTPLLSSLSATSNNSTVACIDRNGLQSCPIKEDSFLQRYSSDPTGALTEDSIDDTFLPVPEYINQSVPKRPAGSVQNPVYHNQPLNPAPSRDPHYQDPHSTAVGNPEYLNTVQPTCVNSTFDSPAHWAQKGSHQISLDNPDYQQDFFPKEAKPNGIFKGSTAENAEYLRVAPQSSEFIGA

Compound | IC50 [1] | IC50 [2] | IC50 [3] | IC50 (EGFR WT (Ba/F3 cells)) | IC50 (EGFR L858R (Ba/F3 cells) [4]) | IC50 [5] | IC50 (EGFR L858R (Ba/F3 cells) [6]) | IC50 [7] | IC50 [8] | IC50 [9] | IC50 [10] | IC50 (EGFR (CUTO14 cells))
COc1c(F)cccc1Nc1c(-c2ccnc3ccc(C)nc23)[nH]c2c1C(=O)NCC2 [Compound 809, 3-[(3-fluoro-2-methoxyphenyl)amino]-2-(6-methyl-1,5-naphthyridin-4-yl)-1H,5H,6H,7H-pyrrolo[3,2-c]pyridin-4-one] | < 100 nM | < 100 nM | < 100 nM | 100 to 1000 nM | < 100 nM | < 100 nM | < 100 nM | < 100 nM | < 100 nM | < 100 nM |  | 
COc1c(Cl)cccc1Nc1c(-c2ccncc2F)[nH]c2c(C[C@@H]3COCCO3)c[nH]c(=O)c12 [compound 657] |  | < 100 nM | < 100 nM | 100 to 1000 nM |  |  | < 100 nM | < 100 nM | < 100 nM | < 100 nM | < 100 nM | < 100 nM
COc1c(F)cccc1Nc1c(-c2ccnc(C)n2)[nH]c2c(C[C@@H]3COCCO3)c[nH]c(=O)c12 [compound 658] |  | < 100 nM | < 100 nM | 100 to 1000 nM |  |  | < 100 nM | < 100 nM | < 100 nM | < 100 nM | < 100 nM | < 100 nM

Further lines, results first:

IC50 [1] | IC50 [2] | IC50 [3] | IC50 (EGFR WT (Ba/F3 cells)) | IC50 (EGFR L858R (Ba/F3 cells) [4]) | IC50 [5] | IC50 (EGFR L858R (Ba/F3 cells) [6]) | IC50 [7] | IC50 [8] | IC50 [9] | IC50 [10] | IC50 (EGFR (CUTO14 cells)) | Compound
< 100 nM | 100 to 1000 nM | < 100 nM | > 1000 nM | < 100 nM | 100 to 1000 nM | < 100 nM | 100 to 1000 nM | < 100 nM | < 100 nM |  |  | COc1c(Cl)cccc1Nc1c(-c2ccncc2F)[nH]c2c1C(=O)NC[C@@H]2CC(F)F [Compound 819, (7S)-3-[(3-chloro-2-methoxyphenyl)amino]-7-(2,2-difluoroethyl)-2-(3-fluoropyridin-4-yl)-1H,5H,6H,7H-pyrrolo[3,2-c]pyridin-4-one]
 | < 100 nM | < 100 nM | 100 to 1000 nM |  |  |  | < 100 nM | < 100 nM |  | < 100 nM | < 100 nM | COc1c(Cl)cc(F)cc1Nc1c(-c2ccnc(C)n2)[nH]c2c1C(=O)NC[C@@H]2C[C@@H]1COCCO1 [compound 651]
